# Reference: US20040152904A1, “Delta1 pyrrolines” (priority 2001, published 2004)
# System: army worm (Spodoptera exigua) caterpillars
# Test: Spodoptera exigua test
# Assay type: in vivo
# Conditions: 8 ppm active compound, cabbage leaves dipped
# Procedure: (§1) Spodoptera exigua Test Solvent: 7 parts by weight of dimethylformamide Emulsifier: 1 part by weight of alkylaryl polyglycol ether To produce a suitable preparation of active compound, 1 part by weight of active compound is mixed with the stated amounts of solvent and emulsifier, and the concentrate is diluted with emulsifier-containing water to the desired concentration. Cabbage leaves (Brassica oleracea) are treated by being dipped into the preparation of active compound of the desired concentration and are populated with army worm (Spodoptera exigua) caterpillars whilst the leaves are still moist. After the desired period of time, the kill in % is determined. 100% means that all caterpillars have been killed; 0% means that none of the caterpillars have been killed.
row,Compound,Kill rate in % after 6d
1,CC(C)(C)n1nnc(-c2ccc(-c3ccc(C4CCC(c5c(F)cccc5F)=N4)cc3)cc2)n1 (stereo not shown) [drawing 61],100%

# Same assay, conditions: 40 ppm active compound, cabbage leaves dipped
row,Compound,Kill rate in % after 6d
1,CCn1nnc(-c2ccc(-c3ccc(C4CCC(c5c(F)cccc5F)=N4)cc3)cc2)n1 (stereo not shown) [drawing 62],100%

# System: Heliothis virescens caterpillars
# Test: Heliothis virescens test
# Assay type: in vivo
# Conditions: 40 ppm active compound, soyabean shoots dipped
# Procedure: as §1, with “Heliothis virescens” for “Spodoptera exigua”, “30” for “7”, “Soyabean shoots (Glycine max)” for “Cabbage leaves (Brassica oleracea)”, “Heliothis virescens” for “army worm (Spodoptera exigua)”
row,Compound,Kill rate in % after 6d
1,CCn1nnc(-c2ccc(-c3ccc(C4CCC(c5c(F)cccc5F)=N4)cc3)cc2)n1 (stereo not shown) [drawing 55],100%
2,CC(C)(C)n1nnc(-c2ccc(-c3ccc(C4CCC(c5c(F)cccc5F)=N4)cc3)cc2)n1 (stereo not shown) [drawing 54],100%

# System: larvae of the mustard beetle (Phaedon cochleariae)
# Test: Phaedon larvae test
# Assay type: in vivo
# Conditions: 1000 ppm active compound, cabbage leaves dipped
# Procedure: as §1, with “Phaedon larvae” for “Spodoptera exigua”, “30” for “7”, “larvae of the mustard beetle (Phaedon cochleariae)” for “army worm (Spodoptera exigua) caterpillars”, “beetle larvae” for “caterpillars”
row,Compound,Kill rate in % after 7d
1,CCCn1nnc(-c2ccc(C3CCC(c4c(F)cccc4F)=N3)cc2)n1 (stereo not shown) [drawing 57],100%
2,CCOCn1nnc(-c2ccc(-c3ccc(C4CCC(c5c(F)cccc5F)=N4)cc3)cc2)n1 (stereo not shown) [drawing 59],100%
3,CCn1nnc(-c2ccc(-c3ccc(C4CCC(c5c(F)cccc5F)=N4)cc3)cc2)n1 (stereo not shown) [drawing 58],100%
4,CC(C)(C)n1nnc(-c2ccc(-c3ccc(C4CCC(c5c(F)cccc5F)=N4)cc3)cc2)n1 (stereo not shown) [drawing 56],100%

# System: not listed separately
# Test: logP by HPLC (EEC Directive 79/831 Annex V.A8, reversed-phase C 18)
# Assay type: physicochemical
# Conditions: reversed-phase HPLC column (C 18), pH 2.3, 0.1% aqueous phosphoric acid / acetonitrile, 43° C., read-out: logP (pH 2.3)
# Procedure: The stated logP values were determined in accordance with EEC Directive 79/831 Annex V.A8 by HPLC (High Performance Liquid Chromatography) using a reversed-phase column (C 18). Temperature: 43° C.
# In the acidic range, the determination was carried out at pH 2.3 using the mobile phases 0.1% aqueous phosphoric acid and acetonitrile; linear gradient from 10% acetonitrile to 90% acetonitrile.
# In the neutral range, the determination was carried out at pH 7.5 using the mobile phases 0.01 molar aqueous phosphate buffer solution and acetonitrile; linear gradient from 10% acetonitrile to 90% acetonitrile.
# Calibration was carried out using unbranched alkan-2-ones (having 3 to 16 carbon atoms) with known logP values (determination of the logP values by the retention times using linear interpolation between two successive alkanones).
row,Compound,chromatographic logP
1,"N#Cc1ccc(-c2ccccc2C2CCC(=O)N2)cc1 (stereo not shown) [2′-(5-oxo-2-pyrrolidinyl)-1,1′-biphenyl-4carbonitrile]",1.94
2,"CC(C)(C)OC(=O)N1C(=O)CCC1c1ccc(-c2ccc(C#N)cc2)cc1 (stereo not shown) [XI-2, tert-butyl 2(4′-cyano-1,1′-biphenyl-4-yl)-5-oxo-1-pyrrolidinecarboxylate]",3.03
3,"CC(C)(C)n1nnc(-c2ccc(Br)cc2)n1 [VII-1, 2-tert-butyl-5-(4-bromo-phenyl)-1(2)H-tetrazole]",4.23
4,Fc1cccc(F)c1C1=NC(c2ccc(-c3nn[nH]n3)cc2)CC1 (stereo not shown) [I-a-1],1.28
5,"OB(O)c1ccc(-c2nn[nH]n2)cc1 [Example V-2, 4-(2H-tetrazol-5-yl)-phenylboronic acid]",0.19
6,"CCOCn1nnc(-c2ccc(Br)cc2)n1 [VII-2, 2-ethoxymethyl-5-(4-bromo-phcnyl)-1(2)H tetrazole]",3.42
7,"CCn1nnc(-c2ccc(-c3ccc(C4CCC(c5c(F)cccc5F)=N4)cc3)cc2)n1 (stereo not shown) [Example 5, 5-{4′-[5-(2,6-difluorophenyl)-3,4-dihydro-2Hpyrrol-2-yl]-1,1′-biphenyl-4-yl}-2-ethyl-2H-tetrazole]",3.21
8,"CC(C)(C)n1nnc(-c2ccc(B(O)O)cc2)n1 [Example V-1, 4-[(2-tert-butyl)-2H-tetrazol-5-yl]phenylboronic acid]",2.01
9,"N#Cc1ccc(-c2ccc(C3CCC(=O)N3)cc2)cc1 (stereo not shown) [XIII-b-1, 4′-(5-oxo-2-pyrrolidinyl)-1,1′-biphenyl-4carbonitrile]",1.92
10,"CC(C)(C)n1nnc(-c2ccc(-c3ccc(C4CCC(c5c(F)cccc5F)=N4)cc3)cc2)n1 (stereo not shown) [Example 2, 2-tert-butyl-5-{4′-[5-(2,6-difluorophenyl)-3,4dihydro-2H-pyrrol-2-yl]-1,1′-biphenyl-4-yl}-2H-tetrazole]",4.14
11,"N#Cc1ccc(C2CCC(=O)N2)cc1 (stereo not shown) [XIII-a-1, 4-(5-oxo-2-pyrrolidinyl)benzonitrile]",0.96
12,"CC(C)(C)OC(=O)N1C(=O)CCC1c1ccc(C#N)cc1 (stereo not shown) [XI-1, tert-butyl-2-(4-cyanophenyl)-5-oxo-1-pyrrolidinecarboxylate]",2.12
13,"N#Cc1ccc(C2CCC(c3c(F)cccc3F)=N2)cc1 (stereo not shown) [VIII-1, 4-[5-(2,6-difluorophenyl)-3,4-dihydro-2Hpyrrol-2-yl]benzonitrile]",2.11
14,"CCn1nnc(-c2ccc(Br)cc2)n1 [VII-3, 2-ethyl-5-(4-bromo-phenyl)-1(2)H-tetrazole]",3.2
15,"N#Cc1ccc(-c2ccc(C3CCC(c4c(F)cccc4F)=N3)cc2)cc1 (stereo not shown) [VIII-2, 4′-[5-(2,6-difluorophenyl)-3,4-dihydro-2H-pyrrol-2-yl]-1,1′-biphenyl-4carbonitrile]",2.84
16,CCCn1nnc(-c2ccc(C3CCC(c4c(F)cccc4F)=N3)cc2)n1 (stereo not shown) [Example 1],2.61

# Same assay, conditions: reversed-phase HPLC column (C 18), pH not printed at the place, read-out: logP
row,Compound,chromatographic logP
1,"CCOCn1nnc(-c2ccc(-c3ccc(C4CCC(c5c(F)cccc5F)=N4)cc3)cc2)n1 (stereo not shown) [Example 4, 5-{4′-[5-(2,6-difluorophenyl)-3,4-dihydro-2H-pyrrol-2-yl]-1,1′-biphenyl-4-yl}-2-(ethoxymethyl)-2H-tetrazole]",3.4
2,"CC(C)(C)n1nnc(-c2ccc(-c3ccc(C4CCC(c5c(F)cccc5F)=N4)cc3)cc2)n1 (stereo not shown) [Example 3, 2-tert-butyl-5-{4′-[5-(2,6-difluorophenyl)-3,4dihydro-2H-pyrrol-2-yl]-1′-biphenyl-4-yl}-2H-tetrazole]",4.14

# System: not given
# Test: not given
# Conditions: not given
row,Compound,melting point
1,"CC(C)(C)OC(=O)N1C(=O)CCC1c1ccc(-c2ccc(C#N)cc2)cc1 (stereo not shown) [XI-2, tert-butyl 2(4′-cyano-1,1′-biphenyl-4-yl)-5-oxo-1-pyrrolidinecarboxylate]",152 °C
2,"CC(C)(C)n1nnc(-c2ccc(-c3ccc(C4CCC(c5c(F)cccc5F)=N4)cc3)cc2)n1 (stereo not shown) [Example 2, 2-tert-butyl-5-{4′-[5-(2,6-difluorophenyl)-3,4dihydro-2H-pyrrol-2-yl]-1,1′-biphenyl-4-yl}-2H-tetrazole]",96 °C
3,"N#Cc1ccc(C2CCC(=O)N2)cc1 (stereo not shown) [XIII-a-1, 4-(5-oxo-2-pyrrolidinyl)benzonitrile]",155 °C
4,"N#Cc1ccc(C2CCC(c3c(F)cccc3F)=N2)cc1 (stereo not shown) [VIII-1, 4-[5-(2,6-difluorophenyl)-3,4-dihydro-2Hpyrrol-2-yl]benzonitrile]",57 °C
5,"N#Cc1ccc(-c2ccc(C3CCC(c4c(F)cccc4F)=N3)cc2)cc1 (stereo not shown) [VIII-2, 4′-[5-(2,6-difluorophenyl)-3,4-dihydro-2H-pyrrol-2-yl]-1,1′-biphenyl-4carbonitrile]",123 °C

# System: Amblyomma variegatum or A. hebraeum, nymphs which have sucked themselves full
# Test: Nymphecdysis test on polyphagous ticks
# Assay type: in vivo
# Conditions: 100 ppm active compound; nymphs immersed for 1 minute
# Procedure: Nymphecdysis Test on Polyphagous Ticks
# Test animals: Amblyomma variegatum or A. hebraeum, nymphs which have sucked themselves full
# Solvent: Dimethyl sulphoxide
# 20 mg of active compound are dissolved in 1 ml of dimethyl sulphoxide, more dilute concentrations are prepared by dilution with distilled water.
# 10 nymphs which have sucked themselves full are immersed for 1 minute into the preparation of active compound to be tested. The animals are transferred to petri dishes (∅ 9.5 cm) fitted with filter discs and covered. […]
# 100% means that none of the animals have undergone normal ecdysis. 0% means that all animals have undergone ecdysis.
# In this test, for example, the compounds 4 and 5 of the preparation examples show good activity.
row,Compound,Effect on ecdysis in % after 48h
1,CCOCn1nnc(-c2ccc(-c3ccc(C4CCC(c5c(F)cccc5F)=N4)cc3)cc2)n1 (stereo not shown) [drawing 74],100%
2,CCn1nnc(-c2ccc(-c3ccc(C4CCC(c5c(F)cccc5F)=N4)cc3)cc2)n1 (stereo not shown) [drawing 73],100%

# Same assay, conditions: in vivo
row,Compound,activity in the nymphecdysis test
1,"CCOCn1nnc(-c2ccc(-c3ccc(C4CCC(c5c(F)cccc5F)=N4)cc3)cc2)n1 (stereo not shown) [Example 4, 5-{4′-[5-(2,6-difluorophenyl)-3,4-dihydro-2H-pyrrol-2-yl]-1,1′-biphenyl-4-yl}-2-(ethoxymethyl)-2H-tetrazole]",good activity
2,"CCn1nnc(-c2ccc(-c3ccc(C4CCC(c5c(F)cccc5F)=N4)cc3)cc2)n1 (stereo not shown) [Example 5, 5-{4′-[5-(2,6-difluorophenyl)-3,4-dihydro-2Hpyrrol-2-yl]-1,1′-biphenyl-4-yl}-2-ethyl-2H-tetrazole]",good activity

# System: greenhouse red spider mite (tetranychus urticae)
# Test: Tetranychus test (OP-resistant/dip treatment)
# Assay type: in vivo
# Conditions: 100 ppm active compound, bean plants dipped
# Procedure: Tetranychus Test (OP-Resistant/Dip Treatment)
# Solvent: 30 parts by weight of dimethylformamide
# Emulsifier: 1 part by weight of alkylaryl polyglycol ether
# To produce a suitable preparation of active compound, 1 part by weight of active compound is mixed with the stated amounts of solvent and emulsifier, and the. concentrate is diluted with emulsifier-containing water to the. desired concentration.
# Bean plants (Phaseolus vulgaris) which are heavily infested by all stages of the greenhouse red spider mite (tetranychus urticae) are dipped into a preparation of active compound of the desired concentration.
# After the desired period of time, the effect in % is determined. 100% means that all spider mites have been killed; 0% means that none of the spider mites have been killed.
row,Compound,Kill rate in % after 7d
1,CC(C)(C)n1nnc(-c2ccc(-c3ccc(C4CCC(c5c(F)cccc5F)=N4)cc3)cc2)n1 (stereo not shown) [drawing 67],98%
2,CCOCn1nnc(-c2ccc(-c3ccc(C4CCC(c5c(F)cccc5F)=N4)cc3)cc2)n1 (stereo not shown) [drawing 70],98%
3,CCCn1nnc(-c2ccc(C3CCC(c4c(F)cccc4F)=N3)cc2)n1 (stereo not shown) [drawing 68],90%
4,CCn1nnc(-c2ccc(-c3ccc(C4CCC(c5c(F)cccc5F)=N4)cc3)cc2)n1 (stereo not shown) [drawing 69],98%

# System: army worm (Spodoptera frugiperda) caterpillars
# Test: Spodoptera frugiperda test
# Assay type: in vivo
# Conditions: 1000 ppm active compound, cabbage leaves dipped
# Procedure: as §1, with “frugiperda” for “exigua”, “30” for “7”, “frugiperda)” for “exigua)”
row,Compound,Kill rate in % after 7d
1,CC(C)(C)n1nnc(-c2ccc(-c3ccc(C4CCC(c5c(F)cccc5F)=N4)cc3)cc2)n1 (stereo not shown) [drawing 63],100%
2,CCn1nnc(-c2ccc(-c3ccc(C4CCC(c5c(F)cccc5F)=N4)cc3)cc2)n1 (stereo not shown) [drawing 65],100%
3,CCCn1nnc(-c2ccc(C3CCC(c4c(F)cccc4F)=N3)cc2)n1 (stereo not shown) [drawing 64],100%
4,CCOCn1nnc(-c2ccc(-c3ccc(C4CCC(c5c(F)cccc5F)=N4)cc3)cc2)n1 (stereo not shown) [drawing 66],100%
